Assay results taken from article PMC5281649 (European Journal of Nuclear Medicine and Molecular Imaging, 2016).
Where two headings read alike, the source gives them in different places.

Assays:
[1] = Pre-PET sembragiline plasma concentration at steady state (LC-MS/MS); assay type: in vivo, human
brain MAO-B enzyme = biological target: T1, brain MAO-B enzyme (Homo sapiens, UniProt P27338); experiment: Plasma concentration–MAO-B enzyme inhibition relationship (simple Emax model); assay type: in vivo
T1 sequence (P27338 1-520): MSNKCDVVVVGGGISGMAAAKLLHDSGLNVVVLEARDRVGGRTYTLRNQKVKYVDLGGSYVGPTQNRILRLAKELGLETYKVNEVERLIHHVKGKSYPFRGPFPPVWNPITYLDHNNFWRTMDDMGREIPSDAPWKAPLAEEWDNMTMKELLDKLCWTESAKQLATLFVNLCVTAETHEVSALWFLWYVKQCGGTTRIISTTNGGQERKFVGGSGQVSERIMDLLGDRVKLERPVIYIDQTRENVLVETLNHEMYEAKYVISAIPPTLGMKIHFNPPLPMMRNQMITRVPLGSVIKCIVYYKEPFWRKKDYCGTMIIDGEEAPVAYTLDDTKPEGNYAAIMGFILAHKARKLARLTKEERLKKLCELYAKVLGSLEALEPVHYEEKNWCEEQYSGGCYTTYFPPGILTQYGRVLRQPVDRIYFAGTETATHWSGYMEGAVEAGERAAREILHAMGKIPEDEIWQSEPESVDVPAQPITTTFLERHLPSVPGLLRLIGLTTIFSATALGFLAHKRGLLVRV
Procedure: The PK/PD analysis was performed using Phoenix WinNonlin software version 6.2 (Pharsight Corporation, Mountain View, CA, USA).

MAO-B enzyme = biological target: MAO-B enzyme; design: method as in doi:10.1016/j.jalz.2013.05.1757; settings: MAO enzymatic activity and displacement assays; read-out: IC50 from in vitro affinity assays of the MAO-B enzyme; cited from earlier work
[2] = 1 and 5 mg daily; moderate AD; compared with placebo; cited from earlier work

## CC(=O)N[C@H]1CC(=O)N(c2ccc(OCc3cccc(F)c3)cc2)C1 [sembragiline]
[1]; AD patients, 1 mg q.d. for 14 days, N 3
  Pre-PET sembragiline plasma concentration at steady state, mean: 41.9 ng/mL
[1]; AD patients, 5 mg loading day 1 then 0.1 mg q.d. Day 2–15, N 2
  Pre-PET sembragiline plasma concentration at steady state, mean: 2.55 ng/mL
[1]; AD patients, 5 mg loading day 1 then 0.2 mg q.d. Day 2–7, N 3
  Pre-PET sembragiline plasma concentration at steady state, mean: 7.06 ng/mL
[1]; AD patients, 5 mg q.d. for 6–9 days, N 2
  Pre-PET sembragiline plasma concentration at steady state, mean: 96.7 ng/mL
[1]; EC subjects, 1 mg q.d. for 14 days, N 3
  Pre-PET sembragiline plasma concentration at steady state, mean: 33.9 ng/mL
[1]; EC subjects, 5 mg loading day 1 then 0.2 mg q.d. Day 2–7, N 3
  Pre-PET sembragiline plasma concentration at steady state, mean: 3.29 ng/mL
Brain MAO-B enzyme; AD patients, frontal cortex, steady state, pre-scan plasma concentration
  Emax (maximum MAO-B occupancy): 81.1 (CV%: 3.2)
Brain MAO-B enzyme; AD patients, frontal cortex, steady state, pre-scan plasma concentration, read-out: EC50 (plasma concentration at half-maximal occupancy) (converted)
  EC50: 3.1 nM
Brain MAO-B enzyme; AD patients, hippocampus, steady state, pre-scan plasma concentration
  Emax (maximum MAO-B occupancy): 85.9 (CV%: 4.1)
Brain MAO-B enzyme; AD patients, hippocampus, steady state, pre-scan plasma concentration, read-out: EC50 (plasma concentration at half-maximal occupancy) (converted)
  EC50: 3.77 nM
Brain MAO-B enzyme; AD patients, striatum, steady state, pre-scan plasma concentration
  Emax (maximum MAO-B occupancy): 87.8 (CV%: 1.8)
Brain MAO-B enzyme; AD patients, striatum, steady state, pre-scan plasma concentration, read-out: EC50 (plasma concentration at half-maximal occupancy) (converted)
  EC50: 3.24 nM
Brain MAO-B enzyme; EC subjects, frontal cortex, steady state, pre-scan plasma concentration
  Emax (maximum MAO-B occupancy): 80.1 (CV%: 8.9)
Brain MAO-B enzyme; EC subjects, frontal cortex, steady state, pre-scan plasma concentration, read-out: EC50 (plasma concentration at half-maximal occupancy) (converted)
  EC50: 4.59 nM
Brain MAO-B enzyme; EC subjects, hippocampus, steady state, pre-scan plasma concentration
  Emax (maximum MAO-B occupancy): 89.1 (CV%: 9.6)
Brain MAO-B enzyme; EC subjects, hippocampus, steady state, pre-scan plasma concentration, read-out: EC50 (plasma concentration at half-maximal occupancy) (converted)
  EC50: 5.99 nM
Brain MAO-B enzyme; EC subjects, striatum, steady state, pre-scan plasma concentration
  Emax (maximum MAO-B occupancy): 88.8 (CV%: 7.5)
Brain MAO-B enzyme; EC subjects, striatum, steady state, pre-scan plasma concentration, read-out: EC50 (plasma concentration at half-maximal occupancy) (converted)
  EC50: 4.88 nM
Brain MAO-B enzyme; across ROIs and for both populations, steady state
  Estimated Emax of MAO-B inhibition: 80–89%
Brain MAO-B enzyme; across ROIs and for both populations, steady state, read-out: Estimated EC50 (plasma concentration)
  EC50: 2.92 to 5.84 nM
Brain MAO-B enzyme; across ROIs and for both populations, steady state, read-out: Estimated Emax of MAO-B inhibition
  Emax: 80 to 90%
Brain MAO-B enzyme; regardless of the population
  Sembragiline concentration needed for near-complete MAO-B inhibition in the brain: around 20 ng/mL
Brain MAO-B enzyme; steady state, AD patients and EC subjects
  Plasma concentration at which the plateau in MAO-B inhibition occurred: 20 to 50 ng/mL
MAO-B enzyme
  IC50: 5 to 6 nM
[2]
  Primary efficacy outcome on cognition (ADAS-Cog11): failed on the primary efficacy outcome on cognition
